Data published in US10011609B2, “Heterocyclic compounds” (CADILA HEALTHCARE LIMITED, priority 2013, dated 2018).
Read-outs that look alike come from different tables or passages of the source.

Tests used:
n-STZ rat model = assay: Oral glucose tolerance test in n-STZ rat model; assay type: in vivo, Wistar rat; conditions: for % improvement in AUC glucose vs. control: n-STZ rat
Method: Primary Screening Protocol for GRP40 agonist test compounds in n-STZ rat model
Wistar rat pups of 1-2 day old injected with Streptozotocin (STZ) at 120 mg/kg dose by intraperitoneal route. All pups allowed grow normally and at the age of 12-14 week they were screen for glucose intolerance by performing the oral glucose tolerance test by tail clip method using glucometer. Animals showing glucose intolerance were selected for evaluation of test compound. Three to seven days of rest period animals were kept on overnight fasting. […] Animals were administered with test compound and then 15-60 min after the compound administration “O” min blood glucose levels were measured and immediately glucose load at 2 g/kg was administered orally. Blood glucose levels were measured at 30, 60 and 120 min after glucose load using by tail clip method using glucometer. Blood was also collected at 10 min after glucose load for measurement of insulin levels. Glucose area under the curve (AUC) was calculated using Graph Pad Prism software and % reduction in AUC-glucose vs vehicle treated control was calculated (Table 3).

GPR40 [1] = molecular target: T1, GPR40 (Homo sapiens, UniProt O14842); assay: Intracellular Ca2+ flux fluorescent assay (FLIPR); assay type: cell-based
T1 construct: host or cells: HEK293 (ChemiBrite cell line)
Method: To determine the EC50 of the compounds on intracellular Ca^2+ flux using a fluorescent assay (FLIPR)
GPR40 expressing stable cells were seeded at 25,000 numbers/well. 50 μL/well of assay buffer (20 mM HEPES+1×HBSS) was added to the cells and the cells were cultured for 20 min at 37° C. Cells were loaded with 50 μL/well of Calcium 5 dye and cultured for 45 min at 37° C.
The cells were challenged with compounds at a top concentration of 1000 nM (1:3 step down dilution—10 points). Intracellular Calcium flux was assessed by use of Screen Works 3.1 tool and statistical analysis was carried using Graph Pad Prism 4

GPR40 [2] = molecular target: T1, GPR40; assay: Promoter-luciferase assay to measure GPR40 activation (HEK293 cells stably transfected with GPR40 cDNA); assay type: cell-based; conditions: EC50 in Luciferase assay, HEK293 cells stably transfected with GPR40, 5xSRE-luciferase
Method: GPR40 activation was measured in HEK293 cells stably transfected with GPR40 cDNA (ChemiBrite cell lines from Millipore, US). These cells were transiently transfected with a pGL2 (Promega Inc.) plasmid having a 5×SRE sequence, cloned 5′ of a luciferase gene along with a β-galactosidase plasmid as normalizing control. Briefly, 35000 cells/well were seeded in a 96 well plates. After overnight incubation at 37° C., the cells were washed with PBS and transfected with the 5×-SRE-Luciferase plasmid and the β-galactosidase plasmid. 6 h post transfection, media was removed and replaced with fresh media with different concentration of drugs and incubated for 16 more hours. The cells were then lysed in 50 μL of Glo-Lysis buffer (Promega) for 30 min at room temperature. The cells were then centrifuged and lysates were collected. Luciferase activity was measured by adding 100 μL of luciferase substrate (Promega) in 20 μL of lysate and measuring the luminescence in luminometer. The […] activity was also measured by adding 20 μL of lysates with 20 μL of β-galactosidase buffer (Promega) and monitoring the absorbance at 415 nm. Luciferase values were divided by β-galactosidase values to normalize transfection efficiency (Table 2)

Pharmacokinetics in rats = conditions: rat, in vivo; for MRT: read-out: Mean residence time

T1 sequence (O14842 whole entry, species assumed): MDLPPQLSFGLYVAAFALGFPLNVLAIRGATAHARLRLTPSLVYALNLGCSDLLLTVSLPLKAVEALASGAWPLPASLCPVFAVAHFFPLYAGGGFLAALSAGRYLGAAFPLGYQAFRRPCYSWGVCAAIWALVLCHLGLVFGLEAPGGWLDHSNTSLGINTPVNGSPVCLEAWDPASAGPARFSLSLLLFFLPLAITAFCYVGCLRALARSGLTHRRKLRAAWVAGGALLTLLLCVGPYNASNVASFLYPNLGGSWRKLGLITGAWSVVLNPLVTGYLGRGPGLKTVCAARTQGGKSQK

Question: Which “% improvement in AUC glucose vs. control” value (n-STZ rat model; 1 mg/Kg per oral) does the source give for CC#C[C@@H](CC(=O)[O][Ca][O]C(=O)C[C@H](C#CC)c1ccc(OCc2cccc(CN3CCc4sc(C)cc4C3)c2)cc1)c1ccc(OCc2cccc(CN3CCc4sc(C)cc4C3)c2)cc1 [Compound 16, calcium(S)-3-(4-((3-((2-methyl-6,7-dihydrothieno[3,2-c]pyridin-5(4H)-yl)methyl)benzyl)oxy)phenyl)hex-4-ynoate(S)-3-(4-((3-((2-methyl-6,7-dihydrothieno[3,2-c]pyridin-5(4H)-yl)methyl)benzyl)oxy)phenyl)hex-4-ynoate] here?
Answer: 44.6%

Question: And the “% improvement in AUC glucose vs. control” value (n-STZ rat model; 10 mg/Kg per oral)?
Answer: 59.6%

Question: And the ED50 (n-STZ rat model; po, n-STZ rat OGTT model)?
Answer: 0.05 mg/kg

Question: What about the EC50 (GPR40 [1]) of the same molecule?
Answer: 2.72 nM

Question: What about the EC50 (GPR40 [2]) of the same molecule?
Answer: 4.6 nM

Question: And the AUC(0-t) (Pharmacokinetics in rats; iv 1 mg/Kg)?
Answer: 3180 ± 400 ng·h/mL

Question: And the C0 (Pharmacokinetics in rats; iv 1 mg/Kg)?
Answer: 5020 ± 370 ng/mL

Question: And the clearance (Pharmacokinetics in rats; iv 1 mg/Kg)?
Answer: 5.26 ± 0.65 mL/min/kg

Question: And the MRT (Pharmacokinetics in rats; iv 1 mg/Kg)?
Answer: 1.09 ± 0.07 h

Question: What about the half-life (Pharmacokinetics in rats; iv 1 mg/Kg, read-out: T1/2, iv (converted)) of the same molecule?
Answer: 1.45 ± 0.12 h

Question: And the Vd (Pharmacokinetics in rats; iv 1 mg/Kg, read-out: Vss)?
Answer: 0.34 ± 0.03 L/kg

Question: What about the Cmax (Pharmacokinetics in rats; po 3 mg/Kg) of the same molecule?
Answer: 5920 ± 2100 ng/mL

Question: And the Tmax (Pharmacokinetics in rats; po 3 mg/Kg)?
Answer: 0.25 h

Question: And the bioavailability (Pharmacokinetics in rats; po 3 mg/Kg vs iv 1 mg/Kg)?
Answer: 83%

Question: What about the MRT (Pharmacokinetics in rats; po 3 mg/Kg) of the same molecule?
Answer: 2.19 ± 0.31 h

Question: What about the half-life (Pharmacokinetics in rats; po 3 mg/Kg, read-out: T1/2, po (converted)) of the same molecule?
Answer: 1.77 ± 0.42 h
